Results published in patent publication US20120164148A1, “Compositions Containing JARID1B Inhibitors and Methods for Treating Cancer” (The Wistar Institute, priority 2009, published 2012).

Legend:
[1] = test system: WM3734^JARID1Bprom-EGFP cells; experiment: Drug treatment of WM3734 JARID1Bprom-EGFP cells, flow cytometry of J/EGFP+ subpopulation and viable cells; type: cell-based, human; conditions: 72 hours of treatment, clinically relevant doses; threshold set at 5% (DMSO control)
Protocol: Left panels, Relative enrichment of the J/EGFP+subpopulation after 72 hours of treatment with a BRAF inhibitor (PLX4720), bortezomib (VEL), temozolomide (TMZ), or salinomycin (SAL) as determined by flow cytometry. The threshold (dotted line) for the J/EGFP+ subpopulation was set at 5% (DMSO control) based on JARID1B expression studies. Depicted box plots represent three independently performed experiments with flow cytometric determination of J/EGFP expression beyond the indicated threshold. Right panels, The number of viable cells within the total population was decreasing during drug treatment.
Flow Cytometry and Fluorescence Activated Cell Sorting. For detection of JARID1B promoter-driven EGFP signals, adherent cells were harvested with 0.05% trypsin and spheres were dissociated as described herein. Dead cells were excluded by staining for 7-AAD. After sorting, aliquots were microscopically checked and were cultured for a short-time to exclude disproportional enrichment of debris or apoptotic cells. Fluorescence-activated cell sorting was carried out using a CYTOMATION MOFLO cytometer (DakoCytomation). Flow cytometric detection of surface markers was done according to standard procedures. Briefly, cells were fixed in 4% paraformaldehyde (PFA) in PBS for 10 minutes and then were blocked with 1% BSA in PBS for 10 minutes at room temperature. Primary and secondary antibodies were incubated for 10 minutes at room temperature. Before and after antibody incubations, cells were washed three times with 1% BSA in PBS. Samples were analyzed using an EPICS XL instrument (Beckman-Coulter). Monoclonal antibodies were follows: anti-CD20 (APC-conjugated; BD PHARMINGEN), anti-CD133 (PE; Miltenyi Biotech), anti-p75/NGFR (APC; Miltenyi Biotech), and anti-MCAM (FITC; R&D Systems). Isotype-matched mouse APC- (BD PHARMINGEN), PE- (R&D Systems), or FITC-conjugated (R&D Systems) antibodies were used as controls. Flow cytometric isolation of side population cells was performed according to established methods (Goodell, et al. (1996) J. Exp. Med. 183:1797-1806). […]

JARID1B = experiment: Validation of JARID1B shRNA knockdown clones (RNA, protein, BrdU, MTS, cell counts); type: cell-based, human; conditions: out of five shRNA clones
From the text: Melanoma Samples and Cell Culture. Fresh human melanoma tissues and cells were obtained according to standard procedures, isolated and maintained in 2% fetal bovine serum (FBS)-substituted melanoma medium (‘Tu2%’) Smalley, et al. (2005) Am. J. Pathol. 166:1541-1554; Satyamoorthy, et al. (1997) Melanoma Res. 7 Suppl 2:S35-42). According to the isolation of neural stem cells and cancer stem cells from brain tumors by culturing of neurospheres (Yuan, et al. (2004) Oncogene 23:9392-9400; Galli, et al. (2004) Cancer Res. 64:7011-7021), melanoma spheres were propagated in mouse embryonic fibroblast (MEF)-conditioned human embryonic stem cell medium (hESCM) according to conventional methods (Fang, et al. (2005) supra). Before use, MEF-conditioned hESCM was mixed with fresh hESCM medium at a 7:3 ratio (‘hESCM4’) and basic fibroblast growth factor was added at 4 ng/ml. Depending on the cell line, sphere formation could be observed 2-6 weeks after starting culture in hESCM4. Spheres were dissociated by collagenase I/IV (Sigma, St. Louis, Mo.) and mechanical treatment, i.e., 200-250 units per ml DMEM (Cellgro) at 37° C. for 10 minutes plus subsequent pipetting. […]
Given the paradox of an increased in vitro self-renewal capacity without any effect on in vivo tumor initiation, it was determined whether JARID1B still could be important for the continuous maintenance of melanomas. […]

WM3734 melanomas = experiment: Bortezomib treatment of xenotransplanted WM3734 melanomas with JARID1B knockdown; type: in vivo, NOD/LtSscidIL2Rγ^null mice; conditions: 20 μg bortezomib intraperitoneally on days 20, 22, 25, 27; JARID1B knocked-down tumors vs sh scrambled control; p=0.024 (MANOVA)
Protocol: Xenotransplanted WM3734 melanomas (mean tumor volume ˜200 mm^3) were treated with 20 μg bortezomib (dissolved in PBS and injected intraperitoneally) on days 20, 22, 25, and 27 after xenotransplantation.
Xenotransplantation Assays and Metastasis Model. To address continuous tumor maintenance in vivo, serial xenotransplantation assays with JARID1B knockdown vs. control cells were performed in NOD/LtSscidIL2Rγ^null mice. For every passage, 10^4 cells in MATRIGEL®/Tu2% at a 1:1 dilution were injected subcutaneously in mice (5 mice per sample). One passage included: injection, tumor growth, tumor dissection, cell isolation (mechanical and collagenase I/IV treatment) and purification. Melanoma cell purification was done by three-day-puromycin treatment confirmed by MCAM flow cytometry. Verification of knockdown was carried out by QRT-PCR. […] Tumor growth was measured weekly using a caliper and was terminated when the first tumor of the series reached 1000 mm^3. Metastatic progression was measured in a spontaneous metastasis model. […] Formalin-fixed, paraffin-embedded (FFPE) sections of whole lungs were H&E-stained and the numbers of macro- and micrometastases were microscopically determined (20× magnification). Two representative frontal sections per lung were analyzed. […]

Compound | relative enrichment for the J/EGFP+ subpopulation [1] | knockdown phenotype (JARID1B) | tumor volume (WM3734 melanomas)
CCCS(=O)(=O)Nc1ccc(F)c(C(=O)c2c[nH]c3ncc(Cl)cc23)c1F [PLX7420] | relative enrichment for the J/EGFP+ subpopulation | – | –
JARID1B—62: shRNA clone from Sigma targeting the coding sequence of JARID1B, SEQ ID NO:14 (CCGGCGAGATGGAATTAACAGTCTTCTCGAGAAGACTGTTAATTCCATCTCGTTTTT) | – | significant knockdown phenotypes | –
CC[C@@H](C(=O)[C@@H](C)[C@@H](O)[C@H](C)[C@@H]1O[C@@H]([C@@H](CC)C(=O)O)CC[C@@H]1C)[C@H]1O[C@]2(C=C[C@@H](O)[C@]3(CC[C@@](C)([C@H]4CC[C@](O)(CC)[C@H](C)O4)O3)O2)[C@H](C)C[C@@H]1C [salinomycin] | relative enrichment for the J/EGFP+ subpopulation | – | –
CC(C)C[C@H](NC(=O)[C@H](Cc1ccccc1)NC(=O)c1cnccn1)B(O)O [bortezomib] | relative enrichment for the J/EGFP+ subpopulation | – | significantly lower tumor volume
sh JARID1B—58: shRNA clone from Sigma targeting the 3′UTR of JARID1B, SEQ ID NO:15 (CCGGCCCACCAATTTGGAAGGCATTCTCGAGAATGCCTTCCAAATTGGTGGGTTTTT) | – | significant knockdown phenotypes | –
